The target of one test is D(2) dopamine receptor (Homo sapiens, UniProt P14416). The test is described as follows: Displacement of [3H]N-methylspiperone from human dopamine D2 receptor expressed in HEK293 cell membranes after 1 hr by scintillation counting method. On the technique in general: Displacement assays read how much labelled ligand stays bound in the presence of the test substance.
The next test addresses D(3) dopamine receptor (Homo sapiens, UniProt P35462). The test is described as follows: Displacement of [3H]N-methylspiperone from human dopamine D3 receptor expressed in HEK293 cell membranes after 1 hr by scintillation counting method.
Test [1] deals with T1, D(4) dopamine receptor (Homo sapiens, UniProt P21917).
T1 sequence (P21917 whole entry): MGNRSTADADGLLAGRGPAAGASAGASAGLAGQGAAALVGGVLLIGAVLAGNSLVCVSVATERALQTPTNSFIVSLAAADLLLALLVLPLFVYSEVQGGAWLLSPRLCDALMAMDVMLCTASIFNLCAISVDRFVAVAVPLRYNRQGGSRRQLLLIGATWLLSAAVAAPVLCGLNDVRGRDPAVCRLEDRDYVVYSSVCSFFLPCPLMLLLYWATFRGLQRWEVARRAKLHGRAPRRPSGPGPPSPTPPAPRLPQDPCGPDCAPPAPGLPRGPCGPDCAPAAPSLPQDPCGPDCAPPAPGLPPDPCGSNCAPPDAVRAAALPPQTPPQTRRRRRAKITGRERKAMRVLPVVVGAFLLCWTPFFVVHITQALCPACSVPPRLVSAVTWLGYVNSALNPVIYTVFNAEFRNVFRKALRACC
The test is described as follows: Displacement of [3H]N-methylspiperone from human dopamine D4 receptor expressed in HEK293 cell membranes after 1 hr by scintillation counting method.

A further test is filed under the species Homo sapiens. Put plainly: Selectivity ratio of Ki for human dopamine D2 receptor to Ki for human dopamine D4 receptor.
Test [2] has as its target T1, D(4) dopamine receptor. Put plainly: Antagonist activity at human SP/Myc epitope-tagged dopamine D4 receptor expressed in HEK293T cells assessed as inhibition of dopamine-induced RLuc8-fused Galphai1 activation preincubated for 15 mins followed by dopamine induction measured after 2 mins by BRET assay. Type of test: cell-based, HEK-293T. Background: BRET reads energy transfer from a luciferase to a nearby fluorophore.

Test [3] addresses T1, D(4) dopamine receptor. Put plainly: Antagonist activity at human SP/Myc epitope-tagged dopamine D4 receptor expressed in HEK293T cells assessed as inhibition of dopamine-induced mVenus-fused beta-arrestin2 recruitment preincubated for 15 mins followed by dopamine induction measured after 2 mins by BRET assay. Type of test: cell-based, HEK-293T. (Arrestin recruitment assays detect the binding of arrestin to an activated receptor.)

The target in test [4] is T2, Muscarinic acetylcholine receptor M1 (Homo sapiens, UniProt P11229).
T2 sequence (P11229 whole entry): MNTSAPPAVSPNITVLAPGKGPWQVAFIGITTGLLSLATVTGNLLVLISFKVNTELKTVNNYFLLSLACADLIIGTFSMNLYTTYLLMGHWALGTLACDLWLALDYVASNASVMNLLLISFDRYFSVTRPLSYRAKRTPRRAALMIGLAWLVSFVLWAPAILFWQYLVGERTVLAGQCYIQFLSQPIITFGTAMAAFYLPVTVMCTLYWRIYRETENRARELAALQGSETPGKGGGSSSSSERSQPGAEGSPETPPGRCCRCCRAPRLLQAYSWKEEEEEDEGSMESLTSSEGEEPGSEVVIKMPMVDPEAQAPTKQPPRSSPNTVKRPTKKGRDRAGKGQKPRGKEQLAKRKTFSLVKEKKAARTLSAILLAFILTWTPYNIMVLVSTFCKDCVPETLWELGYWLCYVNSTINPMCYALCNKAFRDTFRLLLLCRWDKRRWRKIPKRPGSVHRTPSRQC
Put plainly: Displacement of [3H]NMS from human muscarinic M1 receptor expressed in CHO cell membranes after 2 hrs by liquid scintillation counting method.

In test [5] the target is T3, Muscarinic acetylcholine receptor M2 (Homo sapiens, UniProt P08172).
T3 sequence (P08172 whole entry): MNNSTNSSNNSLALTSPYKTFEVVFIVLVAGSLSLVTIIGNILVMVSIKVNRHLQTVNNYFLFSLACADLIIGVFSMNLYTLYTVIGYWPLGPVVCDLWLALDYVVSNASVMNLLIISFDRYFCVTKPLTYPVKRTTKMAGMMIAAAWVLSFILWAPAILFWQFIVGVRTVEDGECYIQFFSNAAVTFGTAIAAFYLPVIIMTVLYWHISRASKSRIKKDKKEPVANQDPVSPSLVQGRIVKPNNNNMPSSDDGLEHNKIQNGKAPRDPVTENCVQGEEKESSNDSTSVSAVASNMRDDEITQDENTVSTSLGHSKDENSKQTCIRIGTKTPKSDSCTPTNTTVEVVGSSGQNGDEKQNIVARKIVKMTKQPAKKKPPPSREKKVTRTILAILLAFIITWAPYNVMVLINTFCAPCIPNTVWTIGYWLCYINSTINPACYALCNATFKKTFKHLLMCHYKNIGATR
Put plainly: Displacement of [3H]NMS from human muscarinic M2 receptor expressed in CHO cell membranes after 2 hrs by liquid scintillation counting method.

Test [6] concerns the target Muscarinic acetylcholine receptor M3 (Homo sapiens, UniProt P20309). Put plainly: Displacement of [3H]NMS from human muscarinic M3 receptor expressed in CHO cell membranes after 2 hrs by liquid scintillation counting method.
The target in test [7] is T4, Muscarinic acetylcholine receptor M4 (Homo sapiens, UniProt P08173).
T4 sequence (P08173 whole entry): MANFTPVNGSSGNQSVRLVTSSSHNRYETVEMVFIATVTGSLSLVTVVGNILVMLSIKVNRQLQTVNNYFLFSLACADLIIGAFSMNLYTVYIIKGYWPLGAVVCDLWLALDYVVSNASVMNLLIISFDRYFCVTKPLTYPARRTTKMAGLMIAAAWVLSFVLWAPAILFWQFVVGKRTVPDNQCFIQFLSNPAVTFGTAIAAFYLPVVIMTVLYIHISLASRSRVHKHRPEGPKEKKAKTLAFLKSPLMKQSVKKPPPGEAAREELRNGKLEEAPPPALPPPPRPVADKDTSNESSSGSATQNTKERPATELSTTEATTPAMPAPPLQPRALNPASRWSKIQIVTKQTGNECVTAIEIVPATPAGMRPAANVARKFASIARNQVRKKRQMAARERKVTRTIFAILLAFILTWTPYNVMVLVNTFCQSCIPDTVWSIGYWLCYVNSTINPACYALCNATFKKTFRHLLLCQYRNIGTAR
The test is described as follows: Displacement of [3H]NMS from human muscarinic M4 receptor expressed in CHO cell membranes after 2 hrs by liquid scintillation counting method.

In test [8] the target is T5, Muscarinic acetylcholine receptor M5 (Homo sapiens, UniProt P08912).
T5 sequence (P08912 whole entry): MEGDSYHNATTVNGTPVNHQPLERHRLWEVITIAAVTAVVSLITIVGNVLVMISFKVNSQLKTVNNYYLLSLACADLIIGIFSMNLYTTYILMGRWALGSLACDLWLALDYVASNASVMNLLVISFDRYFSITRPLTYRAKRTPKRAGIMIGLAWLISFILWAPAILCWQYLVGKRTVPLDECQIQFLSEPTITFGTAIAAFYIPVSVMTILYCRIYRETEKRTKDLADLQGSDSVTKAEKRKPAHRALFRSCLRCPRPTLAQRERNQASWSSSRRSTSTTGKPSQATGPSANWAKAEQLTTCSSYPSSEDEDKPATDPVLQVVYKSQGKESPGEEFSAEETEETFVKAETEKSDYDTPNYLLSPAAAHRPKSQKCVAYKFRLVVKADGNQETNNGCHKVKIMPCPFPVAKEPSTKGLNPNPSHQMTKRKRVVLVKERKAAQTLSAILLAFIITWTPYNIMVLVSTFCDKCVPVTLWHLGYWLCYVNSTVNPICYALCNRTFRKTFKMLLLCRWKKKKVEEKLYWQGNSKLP
Put plainly: Displacement of [3H]NMS from human muscarinic M5 receptor expressed in CHO cell membranes after 2 hrs by liquid scintillation counting method.

The results in this text go back to ChEMBL document CHEMBL4043296 (J Med Chem, 2018).

Muscarinic acetylcholine receptor M3, sequence (P20309 whole entry): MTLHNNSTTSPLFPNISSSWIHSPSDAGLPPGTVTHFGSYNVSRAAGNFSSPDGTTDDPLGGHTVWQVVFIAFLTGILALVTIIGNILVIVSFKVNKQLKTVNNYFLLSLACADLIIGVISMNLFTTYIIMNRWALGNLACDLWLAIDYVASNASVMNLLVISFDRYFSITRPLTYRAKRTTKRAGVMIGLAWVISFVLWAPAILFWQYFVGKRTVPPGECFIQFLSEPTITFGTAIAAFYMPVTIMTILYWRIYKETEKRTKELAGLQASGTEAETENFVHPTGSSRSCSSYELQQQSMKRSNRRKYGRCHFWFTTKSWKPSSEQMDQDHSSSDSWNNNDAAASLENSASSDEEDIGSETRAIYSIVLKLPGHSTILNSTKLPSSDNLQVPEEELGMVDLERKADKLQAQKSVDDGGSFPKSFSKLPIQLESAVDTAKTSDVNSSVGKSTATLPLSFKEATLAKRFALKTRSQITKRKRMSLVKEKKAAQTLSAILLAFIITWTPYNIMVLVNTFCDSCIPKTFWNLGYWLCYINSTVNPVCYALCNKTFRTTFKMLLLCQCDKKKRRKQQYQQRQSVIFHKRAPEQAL
D(2) dopamine receptor, sequence (P14416 whole entry): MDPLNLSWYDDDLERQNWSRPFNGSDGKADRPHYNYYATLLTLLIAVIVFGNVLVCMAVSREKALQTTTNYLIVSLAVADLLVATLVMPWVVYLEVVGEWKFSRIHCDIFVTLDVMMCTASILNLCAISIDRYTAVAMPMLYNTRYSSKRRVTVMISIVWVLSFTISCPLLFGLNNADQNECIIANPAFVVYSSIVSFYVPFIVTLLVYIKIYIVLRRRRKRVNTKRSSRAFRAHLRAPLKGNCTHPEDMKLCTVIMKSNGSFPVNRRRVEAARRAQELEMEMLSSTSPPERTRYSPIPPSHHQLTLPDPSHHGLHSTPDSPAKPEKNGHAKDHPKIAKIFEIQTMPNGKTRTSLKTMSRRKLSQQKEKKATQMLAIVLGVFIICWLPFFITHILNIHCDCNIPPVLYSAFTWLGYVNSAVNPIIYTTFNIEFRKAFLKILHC
D(3) dopamine receptor, sequence (P35462 whole entry): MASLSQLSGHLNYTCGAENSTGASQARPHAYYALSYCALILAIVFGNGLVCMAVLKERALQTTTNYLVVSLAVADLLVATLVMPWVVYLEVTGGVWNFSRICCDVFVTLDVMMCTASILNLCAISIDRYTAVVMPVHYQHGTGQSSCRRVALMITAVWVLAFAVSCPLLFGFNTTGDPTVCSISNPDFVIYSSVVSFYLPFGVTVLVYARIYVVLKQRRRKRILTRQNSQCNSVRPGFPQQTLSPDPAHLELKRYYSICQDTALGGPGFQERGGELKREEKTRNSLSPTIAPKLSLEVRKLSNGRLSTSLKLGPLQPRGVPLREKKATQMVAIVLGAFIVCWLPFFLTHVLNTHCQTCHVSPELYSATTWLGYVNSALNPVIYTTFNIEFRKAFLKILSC

A word on the Ki: it is the equilibrium dissociation constant of an inhibitor or competing ligand from its target. Higher therefore signals weaker binding. What is called IC50 is the point on the concentration scale where inhibition reaches its midpoint. In the case of `O=C1CCc2ccccc2N1CCCN1CCC(CCCCCO)CC1`, the Ki was 1170 nM at D(2) dopamine receptor, 676 nM at D(3) dopamine receptor and 4.37 nM at D(4) dopamine receptor [1]. The Ratio Ki in the test listed under Homo sapiens was 269. In addition, the figures for the half-maximal inhibitory concentration (IC50) on D(4) dopamine receptor [2] and at D(4) dopamine receptor [3] were 126 nM and 151 nM, respectively.
Take `CCCCCC1CCN(CCCN2C(=O)CCc3ccccc32)CC1`: the Ki on D(2) dopamine receptor is 525 nM; on D(3) dopamine receptor, 282 nM; on D(4) dopamine receptor [1], 1.38 nM; in test [4], 490 nM; in test [5], 562 nM; in test [6], 1.35 µM. The Ki in [7] is 575 nM; in test [8], 3.55 µM. In the test listed under Homo sapiens, the Ratio Ki was 380.
`O=C1CCc2ccccc2N1CCCN1CCC(CCc2ccccc2)CC1`: the Ki on D(2) dopamine receptor is 288 nM; at D(3) dopamine receptor it was 407 nM; on D(4) dopamine receptor [1], 2.14 nM; in test [4], 263 nM; in test [5], 204 nM; in test [6] it was 0.501 µM. Further, the Ki is 200 nM in test [7] and 0.759 µM in [8]. For the same compound, in the test listed under Homo sapiens, the Ratio Ki is 135.
Consider `O=C1CCc2ccccc2N1CCCN1CCN(CCc2ccccc2)CC1`, for which the Ki was 5750 nM at D(2) dopamine receptor; 3980 nM at D(3) dopamine receptor; 28.8 nM at D(4) dopamine receptor [1]; 2290 nM in test [4]; 1780 nM in [5]; 6.61 µM in [6]. The Ki in test [7] was 5130 nM; in [8] it was 7.94 µM. Moreover, in the test listed under Homo sapiens, the Ratio Ki is 200.
Take `O=C1CCc2ccccc2N1CCCN1CCC(c2ccccc2)CC1`: the Ki on D(2) dopamine receptor is 457 nM; on D(3) dopamine receptor, 708 nM; on D(4) dopamine receptor [1], 1.95 nM; in test [4], 2880 nM; in test [5], 2400 nM; in [6], 4.68 µM. Besides, the inhibition constant (Ki) was 1290 nM in [7] and 2.04 µM in test [8]. Further, the Ratio Ki in the test filed under Homo sapiens worked out at 234.
On to `CCCCN1CCN(CCCN2C(=O)CCc3ccccc32)CC1`, for which the Ki on D(2) dopamine receptor is 5130 nM; on D(3) dopamine receptor, 3890 nM; on D(4) dopamine receptor [1], 316 nM; in test [4], 2690 nM; in [5], 4170 nM; in test [6] it was 7.08 µM. Further, the Ki in test [7] was 3160 nM; in test [8], 9.12 µM. In addition, in the test filed under Homo sapiens, the Ratio Ki was 16.
Turning to `CC1CCN(CCCN2C(=O)CCc3ccccc32)CC1`, the Ki at D(2) dopamine receptor is 4470 nM; at D(3) dopamine receptor, 3720 nM; at D(4) dopamine receptor [1] it was 257 nM; in [4], 12000 nM; in [5], 11500 nM; in test [6], 14.1 µM. The Ki in test [7] is 9330 nM; in [8], 24 µM. Also, in the test filed under Homo sapiens, the Ratio Ki was determined as 17.
As for `CCCC1CCN(CCCN2C(=O)CCc3ccccc32)CC1`, the Ki was 912 nM on D(2) dopamine receptor; 1550 nM on D(3) dopamine receptor; 5.25 nM on D(4) dopamine receptor [1]; 2510 nM in test [4]; 1910 nM in test [5]; 2.34 µM in test [6]. For the same compound, the Ki in [7] was 1660 nM; in test [8] it was 1.95 µM. Besides, in the test filed under Homo sapiens, the Ratio Ki is 174.
